# According to publication PMC13492380, “Dissecting Structural and Functional Determinants of Microtubules Stabilization through Guided Chemical Modulation” (Journal of Medicinal Chemistry, 2026):
# Legend:
# [1] = test system: Tau-mCherry (Tau 441 isoform) on stabilized MTs from porcine brain tubulin; assay: Tau-mCherry binding to stabilized MTs (TIRF); assay type: biochemical; conditions: 40 nM Tau-mCherry
# Excerpt: Previous studies in vitro have shown that Tau molecules strongly prefer compacted GDP lattices. Tau binds cooperatively to MT surfaces, resulting in a cohesive layer depending on tau-tau interactions, termed MT envelope, which selectively regulates access to MT lattices, and shields MTs from severing enzymes. − On expanded PTX-MTs, Tau envelope also forms and the lattice can get locally compacted. To further explore how MT lattice structure influences Tau binding, we employed an in vitro reconstitution assay. We deposited stabilized MTs in a flow chamber, and visualized them via interference reflection microscopy (Figure C). We then added 10 nM Tau-mCherry (labeled purified Tau 441 isoform at the C-terminus with mCherry) and monitored its association with MTs using time-lapse TIRF microscopy. After 4 min, we increased Tau concentration to 40 nM, and continued imaging for an additional 4 min. We measured fluorescence intensities along MTs to quantify Tau binding (Movies S16–S27). […] PTXpost-MTs also supported […] faster envelope growth (0.20 ± 0.02 μm/s versus 0.054 ± 0.006 μm/s for PTXpre-MTs, Figure H).
# (§1) Total Internal Reflection Fluorescence microscopy experiments were performed on an inverted widefield microscope Nikon-Ti2 E, equipped with a motorized XY-stage, a perfect focus system, Apo TIRF 60× oil NA 1.49 objective and PRIME BSY (Teledyne Photometrics) camera. MTs were visualized using Interference Reflection microscopy (IRM) and fluorescently labeled proteins were visualized sequentially by switching between microscope filter cubes for GFP and mCherry channels. The microscopes were controlled using NIS Elements software (Nikon). All experiments were conducted at RT.
# (§2) Microscopy chambers were prepared from two sandwiched silanized glass coverslips (22 × 22 mm^2 and 18 × 18 mm^2) attached through parafilm strips (heated for 15–20 s at 60 °C and gently pressed together) to form ∼2.5 mm wide parallel flow channels. Prior to the chamber assembly, the coverslips were washed in 3 M KOH, cleaned using Zepto plasma cleaner (Diener electronic) and silanized with hexamethyldisilazane. Flow channels were first incubated with 40 μgml^–1 antibiotin antibodies (Sigma, B3640) in PBS for 10 min, followed by incubation with 1% Pluronic F127 (Sigma-Aldrich, P2443) in PBS for at least 1 h. F127 was washed with BRB80 (80 mM PIPES, 1 mM EGTA, 1 mM MgCl2, pH 6.9).
# (§3) Porcine brain tubulin was isolated using the high-molarity PIPES procedure then mixed with Biotin labeled tubulin (Cytoskeleton Inc., T333P) in 1:49 ratio. All MTs were polymerized using 2% biotin-labeled tubulin. […] Polymerized MTs were centrifuged for 30 min at 18,000g in a Microfuge 18 Centrifuge (Beckman Coulter’s). […] Drug stabilized preassembly MTs (polymerized in the presence of drugs and GTP, stored and imaged in presence of drug) were polymerized from 4 mg mL^–1 biotinylated tubulin for 30 min at 37 °C in BRB80 supplemented with 4 mM MgCl2, 40 μM drug of interest in 5% DMSO, and 1 mM GTP. Polymerized MTs were centrifuged for 30 min at 18,000g in a Microfuge 18 Centrifuge (Beckman Coulter’s). […] GMPCPP stabilized MTs (GMPCPP polymerized) were assembled from 4 mg mL^–1 biotinylated tubulin for 2 h at 37 °C in BRB80 supplemented with 1 mM MgCl2 and 1 mM GMPCPP (Jena Bioscience, NU-405). Polymerized MTs were centrifuged for 30 min at 18,000g in a Microfuge 18 Centrifuge (Beckman Coulter’s) and pellets were resuspended and kept in BRB80.
# Stabilized MTs were flushed into the channel and incubated for 15–30 s to allow for surface attachment. Unbound MTs were removed by washing with BRB80 supplemented with 10 μM of drug. Prior the experiment, the solution was exchanged by motility buffer, MB (BRB80 containing 10 mM DTT, 20 mM D-glucose, 0.1% Tween-20, 0.5 mg/mL casein, 1 mM Mg-ATP, 0.02 mg/mL catalase, 0.22 mg/mL glucose oxidase, 10 μM drug). Subsequently, a solution containing either 1.08 nM Kif5b-EGFP or 10/40 nM mCherry-Tau in MB was introduced into the chamber. […]
# [2] = test system: human Kif5B 1–905-EGFP on stabilized MTs; assay: Single-molecule kinesin-1 motility assay on stabilized MTs (TIRF); assay type: biochemical; conditions: 1.08 nM Kif5b-EGFP, 10 μM drug
# Method: To gain mechanistic insight into the kinesin phenotype observed in cells, we reduced system complexity using an in vitro reconstitution assay. Specifically, we performed time-lapse imaging using total internal reflection fluorescence (TIRF) microscopy with immobilized and stabilized MTs in a flow chamber, into which we introduced 1.08 nM kinesin-1 motors (constitutively active human Kif5B 1–905-EGFP). We then analyzed individual kinesin movements to quantify landing rates (number of motors per unit MT length per unit time), run lengths, interaction times, and average velocities (Figure D, Movies S12–S15). In contrast to our experiments in cells, here we evaluated each structural modification individually to dissect the effects of MT lattice parameters on kinesin-1 mediated transport.
# as §1, §2, §3
# Stabilized MTs were flushed into the channel and incubated for 15–30 s to allow for surface attachment. Unbound MTs were removed by washing with BRB80 supplemented with 10 μM of drug. Prior the experiment, the solution was exchanged by motility buffer, MB (BRB80 containing 10 mM DTT, 20 mM D-glucose, 0.1% Tween-20, 0.5 mg/mL casein, 1 mM Mg-ATP, 0.02 mg/mL catalase, 0.22 mg/mL glucose oxidase, 10 μM drug). Subsequently, a solution containing either 1.08 nM Kif5b-EGFP or 10/40 nM mCherry-Tau in MB was introduced into the chamber.
# To assess kinesin-EGFP motility along MTs, an IRM image (50 ms exposure) was acquired followed by a 1 min video using 488 nm laser excitation (20% laser intensity, 300 ms exposure) with no delay. Two to three videos were recorded from different fields within the same channel and at least 2 channels were measure for each experimental condition. […]
# [3] = test system: taxane site of assembled cross-linked MTs; assay: Displacement of FTX2 from the taxane site (fluorescence polarization); assay type: binding, calf; conditions: 35 °C
# Method: Purified calf brain tubulin and chemicals were obtained as previously described. Tau-mCherry was expressed and purified as described previously. Human Kif5B-EGFP (amino acids 1-905), containing a C terminal fluorescent-tag followed by a 3C protease cleavage site and a 6 × His-tag was expressed and purified as in with some modifications. Prior to purification, cells were resuspended in 1:1 ratio of lysis buffer (30 mM HEPES pH 7.5, 300 mM NaCl, 0.5 mM ATP, 5% glycerol, 20 mM imidazole, […]) supplemented with 1× Protease inhibitor cocktail and benzonase to the final concentration of 25 units/ml. Cells were homogenized by repeated pipetting. Cells were lysed by spinning for 45 min at 40,000 rpm in 45 Ti fixed-angle rotor (Beckman Coulter) at 4 °C. The supernatant was incubated with pre-equilibrated HisPUR NiNTA agarose resin (Thermo Fisher Scientific) for 1 h in a tightly closed gravity-flow column (Thermo Fisher Scientific) at 4 °C by slowly rotating. Subsequently, the resin was washed once lysis buffer and then with buffer B (30 mM HEPES pH 7.5, 300 mM NaCl, 0.5 mM ATP, 5% glycerol, 30 mM imidazole, […]). The protein was eluted from the resin after an overnight cleavage of the 6 × His-tag with 3C HRV protease in lysis buffer at 4 °C. The eluted protein was further purified via size exclusion chromatography on Superdex 200 10/300 GL column equilibrated in exclusion buffer (30 mM HEPES pH 7.5, 300 mM NaCl, 0.5 mM ATP, 5% glycerol, […]). Peak fractions were analyzed via SDS-PAGE, pooled and the protein was concentrated with Amicon Ultra-15 Centrifugal Filter tubes (Millipore). Purified proteins were aliquoted, snap-frozen in liquid N2, and stored at −80 °C.
# The equilibrium binding constant of 1a and 1b to the taxane site of assembled MTs were determined by the displacement of FTX2 from the taxane site in cross-linked MTs. The displacement isotherm of each ligand was measured at least three times in two different plates with a fluorescence polarization microplate reader, as described. A mixture of 50 nM taxane binding sites and 50 nM FTX2 in GAB buffer was sampled in a 96-well plate. […] After mixing the samples for 10 min by shaking at 250 rpm, they were incubated 20 min at the desired temperatures (26, 35 or 42 °C) and their anisotropies were measured using a Spark Tecan plater reader in fluorescence polarization at emission of 535 nm and excitation of 485 nm. A sample containing 50 nM taxane binding sites was employed as blank, and a 50 nM solution of FTX2 in GAB, 0.1 mM GTP was employed as anisotropy standard. G factor was calculated as a mean over several cells in different conditions. The molar saturation fraction, X b , of the probe for each competitor concentration is calculated from the polarization values measured, P. Measurements of the polarization of FTX2 completely displaced (P 0 ) and, in absence of the competitor ligand (P sat), are required for data processing. The binding of FTX2 in the presence of the competitor ligand (X b = (P–P 0 /P sat – P 0 ) · X sat) was calculated and best fitted to the equilibrium binding constant of the competitor assuming unitary stoichiometry and the binding constant of the reference ligand (FTX2) with a PC program (Equigra v5).
# Once the equilibrium binding constants are measured at different temperatures, the standard free energy of binding at a given temperature is calculated from the binding constant as ΔG 0app = −RT Ln K a, the standard enthalpy of the binding reaction is calculated from the representation of Ln K a versus 1/T (Van’t Hoff representation), and the slope of this representation multiplied by −R is equal to −ΔH 0app. The standard entropy of binding to ΔS 0app is calculated from the slope of the linear regression of ΔG 0app versus T.
Compound,Tau-mCherry coating of stabilized MTs [1],kinesin-1 landing rate on stabilized MTs [2],kinesin-1 time bound on stabilized MTs [2],kinesin-1 velocity on stabilized MTs [2],"incremental binding free energy (ΔΔG), PTX-to-derivative modification [3] [kJ mol^–1]"
"Nc1nc2c(ncn2C2OC(COP(=O)(O)CP(=O)(O)OP(=O)(O)O)C(O)C2O)c(=O)[nH]1 (stereo not drawn) [GMPCPP, guanosine-5′-[(α,β)-methyleno]triphosphate]",bound diffusively,decreased on GMPCPP compared with PTX,increased the time bound,decreased the velocity,
"CC(=O)OC1C(=O)C2(C)C(OC(=O)C(C)NC(=O)CCCCCNC(=O)c3ccc(-c4c5ccc(=O)cc-5oc5cc(O)ccc45)c(C(=O)O)c3)CC3OCC3(OC(C)=O)C2C(OC(=O)c2ccccc2)C2(O)CC(OC(=O)C(O)C(NC(=O)c3ccccc3)c3ccccc3)C(C)=C1C2(C)C (stereo not drawn) [HFX, Hexaflutax, reference compound]",,,,,6.9
Flutax-1 [reference compound],,,,,−1.63
